Experimental data as given in US10214507B2, “Carbazole-containing amides, carbamates, and ureas as cryptochrome modulators” (Reset Therapeutics, Inc., priority 2014, dated 2019).

System: stable U20S reporter cells harboring Per2-dLuc
Assay: Per2 assay for evaluating the potency of test compounds (circadian luciferase reporter)
Format: cell-based
Settings: amplitude of Per2-dLuc luminescence vs log concentration
Description: Compounds were screened by using a high-throughput circadian assay system as previously described in Zhang, E. E. et al. Cell, 2009, 139, 199-210. In brief, stable U20S reporter cells harboring Per2-dLuc were plated at a density of 30,000 cells/well in Corning 96-well, solid white, flat bottom, TC-treated microplates (Corning®), and incubated for 48 hours at 37° C. in the presence of 5% CO2 in a medium of Dulbecco's Modified Eagle Medium (DMEM) supplemented with 10% fetal bovine serum (FBS) and penicillin (100 units/mL)-streptomycin (100 μg/mL). […] DMSO stocks are then serially diluted in DMSO, typically diluting 3-fold for each dilution step. Following the 48 h period, cell culture medium is removed from plated cells and cells are synchronized with 200 μL/well of complete cell culture medium (described above), supplemented with 5 μM forskolin (Tocris®) and 1 mM beetle luciferin (Promega®). Immediately following synchronization, 1 μL of compound dilution is added to each well. Plates are sealed, shaken briefly, and gene expression was monitored by measuring luminescence (Tecan® Infinite M200 or Tecan® Infinite M200 Pro) continuously for a minimum of 3 days at 35° C. Raw luminescence data (counts) are first analyzed using Multicycle™ software (Actimetrics, Inc.) to determine the amplitude (amp), period, and phase (phz) for each compound concentration. The period length for control wells (i.e. no compound, DMSO only) should be 26-30 h. Amp data are then plotted against the logarithm compound concentration (M) and analyzed by nonlinear regression analysis to determine the EC50.

Row | Compound | EC50
1 | O=C1[C@H]2CC[C@H](C2)N1C[C@H](O)Cn1c2ccc(F)cc2c2cc(F)ccc21 [Compound 105, (1R,4S)-2-((R)-3-(3,6-difluoro-9H-carbazol-9-yl)-2-hydroxypropyl)-2-azabicyclo[2.2.1]heptan-3-one] | 54 nM
2 | C[C@H]1CCN(C[C@H](O)Cn2c3ccc(F)cc3c3cc(F)ccc32)C1=O [Compound 115, (S)-1-((R)-3-(3,6-difluoro-9H-carbazol-9-yl)-2-hydroxypropyl)-3-methylpyrrolidin-2-one] | 500 nM
3 | CC1CN(CC(O)Cn2c3ccc(F)cc3c3cc(F)ccc32)C(=O)N1 (stereo not drawn) [Compound 85, 1-(3-(3,6-difluoro-9H-carbazol-9-yl)-2-hydroxypropyl)-4-methylimidazolidin-2-one] | 667 nM
4 | CC1CCCC(=O)N1CC(O)Cn1c2ccccc2c2ccccc21 (stereo not drawn) [Compound 63, 1-(3-(9H-carbazol-9-yl)-2-hydroxypropyl)-6-methylpiperidin-2-one] | 541 nM
5 | CC(O)(CN1CCCC1=O)Cn1c2ccccc2c2ccccc21 (stereo not drawn) [Compound 67, 1-(3-(9H-carbazol-9-yl)-2-hydroxy-2-methylpropyl)pyrrolidin-2-one] | 225 nM
6 | CC(O)(CN1CCC(F)(F)C1=O)Cn1c2ccc(F)cc2c2cc(F)ccc21 (stereo not drawn) [Compound 59, 1-(3-(3,6-difluoro-9H-carbazol-9-yl)-2-hydroxy-2-methylpropyl)-3,3-difluoropyrrolidin-2-one] | 986 nM
7 | CC1CCC(=O)N(CC(O)Cn2c3ccccc3c3ccccc32)C1 (stereo not drawn) [Compound 62, 1-(3-(9H-carbazol-9-yl)-2-hydroxypropyl)-5-methylpiperidin-2-one] | 370 nM
8 | CC(C)N1CCN(CC(O)Cn2c3ccc(F)cc3c3cc(F)ccc32)C1=O (stereo not drawn) [Compound 90, 1-(3-(3,6-difluoro-9H-carbazol-9-yl)-2-hydroxypropyl)-3-isopropylimidazolidin-2-one] | 605 nM
9 | O=C1CCCN1CC(O)Cn1c2ccccc2c2ccccc21 (stereo not drawn) [Compound 68, 1-(3-(9H-carbazol-9-yl)-2-hydroxypropyl)pyrrolidin-2-one] | 288 nM
10 | CC1CCN(CC(C)(O)Cn2c3ccc(F)cc3c3cc(F)ccc32)C1=O (stereo not drawn) [Compound 30, 1-(3-(3,6-difluoro-9H-carbazol-9-yl)-2-hydroxy-2-methylpropyl)-3-methylpyrrolidin-2-one] | 895 nM
11 | O=C1NCCCN1CC(O)Cn1c2ccc(F)cc2c2cc(F)ccc21 (stereo not drawn) [Compound 71, 1-(3-(3,6-difluoro-9H-carbazol-9-yl)-2-hydroxypropyl)tetrahydropyrimidin-2(1H)-one] | 188 nM
12 | CCC1CCN(CC(O)Cn2c3ccc(F)cc3c3cc(F)ccc32)C1=O (stereo not drawn) [Compound 17, 1-(3-(3,6-difluoro-9H-carbazol-9-yl)-2-hydroxypropyl)-3-ethylpyrrolidin-2-one] | 417 nM
13 | CC(C)C1CCCN(CC(C)(O)Cn2c3ccc(F)cc3c3cc(F)ccc32)C1=O (stereo not drawn) [Compound 26, 1-(3-(3,6-difluoro-9H-carbazol-9-yl)-2-hydroxy-2-methylpropyl)-3-isopropylpiperidin-2-one] | 1050 nM
14 | C[C@@H]1CCC(=O)N(C[C@@H](O)Cn2c3ccccc3c3ccccc32)C1 [Compound 133, (R)-1-((S)-3-(9H-carbazol-9-yl)-2-hydroxypropyl)-5-methylpiperidin-2-one] | 838 nM
15 | CC(C)C1CCCN(CC(O)Cn2c3ccc(F)cc3c3cc(F)ccc32)C1=O (stereo not drawn) [Compound 25, 1-(3-(3,6-difluoro-9H-carbazol-9-yl)-2-hydroxypropyl)-3-isopropylpiperidin-2-one] | 79 nM
16 | O=C1N(CC(O)Cn2c3ccccc3c3ccccc32)CCCN1C1CCC1 (stereo not drawn) [Compound 100, 1-(3-(9H-carbazol-9-yl)-2-hydroxypropyl)-3-cyclobutyltetrahydropyrimidin-2(1H)-one] | 721 nM
17 | CC(C)N1CCCN(CC(O)Cn2c3ccc(F)cc3c3cc(F)ccc32)C1=O (stereo not drawn) [Compound 77, 1-(3-(3,6-difluoro-9H-carbazol-9-yl)-2-hydroxypropyl)-3-isopropyltetrahydropyrimidin-2(1H)-one] | 620 nM
18 | O=C1Nc2ccccc2CN1CC(O)Cn1c2ccc(F)cc2c2cc(F)ccc21 (stereo not drawn) [Compound 103, 3-(3-(3,6-difluoro-9H-carbazol-9-yl)-2-hydroxypropyl)-3,4-dihydroquinazolin-2(1H)-one] | 940 nM
19 | O=C1N(CC(O)Cn2c3ccc(F)cc3c3cc(F)ccc32)CCCN1C1CC1 (stereo not drawn) [Compound 83, 1-cyclopropyl-3-(3-(3,6-difluoro-9H-carbazol-9-yl)-2-hydroxypropyl)tetrahydropyrimidin-2(1H)-one] | 147 nM
20 | O=C1[C@@H](F)CCN1C[C@H](O)Cn1c2ccccc2c2ccccc21 [Compound 122, (S)-1-((R)-3-(9H-carbazol-9-yl)-2-hydroxypropyl)-3-fluoropyrrolidin-2-one] | 263 nM
21 | CC1CCC(=O)N1CC(O)Cn1c2ccc(F)cc2c2cc(F)ccc21 (stereo not drawn) [Compound 34, 1-(3-(3,6-difluoro-9H-carbazol-9-yl)-2-hydroxypropyl)-5-methylpyrrolidin-2-one] | 286 nM
22 | C[C@](O)(CN1CC[C@@H](F)C1=O)Cn1c2ccccc2c2ccccc21 [Compound 127, (R)-1-((R)-3-(9H-carbazol-9-yl)-2-hydroxy-2-methylpropyl)-3-fluoropyrrolidin-2-one] | 535 nM
23 | CC1CC(=O)N(CC(O)Cn2c3ccc(F)cc3c3cc(F)ccc32)C1 (stereo not drawn) [Compound 43, 1-(3-(3,6-difluoro-9H-carbazol-9-yl)-2-hydroxypropyl)-4-methylpyrrolidin-2-one] | 1030 nM
24 | CCN1CCCN(CC(O)Cn2c3ccc(F)cc3c3cc(F)ccc32)C1=O (stereo not drawn) [Compound 86, 1-(3-(3,6-difluoro-9H-carbazol-9-yl)-2-hydroxypropyl)-3-ethyltetrahydropyrimidin-2(1H)-one] | 497 nM
25 | O=C1N(CC(O)Cn2c3ccc(F)cc3c3cc(F)ccc32)CCCN1C1CCCC1 (stereo not drawn) [Compound 76, 1-cyclopentyl-3-(3-(3,6-difluoro-9H-carbazol-9-yl)-2-hydroxypropyl)tetrahydropyrimidin-2(1H)-one] | 609 nM
26 | CC(C)C1CC(=O)N(CC(O)Cn2c3ccc(F)cc3c3cc(F)ccc32)C1 (stereo not drawn) [Compound 41, 1-(3-(3,6-difluoro-9H-carbazol-9-yl)-2-hydroxypropyl)-4-isopropylpyrrolidin-2-one] | 373 nM
27 | CCN1CCCN(CC(O)Cn2c3ccccc3c3ccccc32)C1=O (stereo not drawn) [Compound 95, 1-(3-(9H-carbazol-9-yl)-2-hydroxypropyl)-3-ethyltetrahydropyrimidin-2(1H)-one] | 568 nM
28 | CC(O)(CN1CCCC(F)C1=O)Cn1c2ccc(F)cc2c2cc(F)ccc21 (stereo not drawn) [Compound 12, 1-(3-(3,6-difluoro-9H-carbazol-9-yl)-2-hydroxy-2-methylpropyl)-3-fluoropiperidin-2-one] | 909 nM
29 | O=C1C(C2CCC2)CCN1CC(O)Cn1c2ccc(F)cc2c2cc(F)ccc21 (stereo not drawn) [Compound 50, 3-cyclobutyl-1-(3-(3,6-difluoro-9H-carbazol-9-yl)-2-hydroxypropyl)pyrrolidin-2-one] | 204 nM
30 | O=C1[C@@H]2CC[C@@H](C2)N1C[C@H](O)Cn1c2ccc(F)cc2c2cc(F)ccc21 [Compound 104, (1S,4R)-2-((R)-3-(3,6-difluoro-9H-carbazol-9-yl)-2-hydroxypropyl)-2-azabicyclo[2.2.1]heptan-3-one] | 115 nM
